Reference: US12187663B2, “Thyromimetics with a biphenylmethane scaffold and their use” (INTERNATIONAL SOCIETY FOR DRUG DEVELOPMENT S.R.L., priority 2019, dated 2025)

Tested on: ACC
Experiment: Western blot of phosphorylated ACC in HepG2 cells
Assay type: cell-based, Human
Details: twenty-four hours of treatment
Description: Human hepatocellular carcinoma cells (HepG2), obtained from American Type Culture Collection (Manassas, Va., USA), were cultured in low-glucose (LG) Dulbecco's modified Eagle's medium (DMEM) ([…], Invitrogen, Carlsbad, Calif., USA) or high-glucose (HG) DMEM ([…]) supplemented with 10% fetal bovine serum (FBS) and […] penicillin/streptomycin in an atmosphere of 5% CO2 at 37° C. These cells were then treated with tested compounds at various concentrations for 24 h. After treatments, cells were lysed in a buffer containing 20 mM Tris-HCl (pH 7.5), 0.9% NaCl, 0.2% Triton X-100, and 1% of the protease inhibitor cocktail (Sigma-Aldrich, Milan, Italy) and then stored at −80° C. for further western blot analysis. All the analyses were conducted on cells between the third and the sixth passage.
Proteins (20-30 μg) were separated on CriterionTGX™ gel (4-20%) and transferred on Immuno-PVDF membrane (Biorad, Milan, Italy) for 1 h. Blots were incubated with the primary antibody at 4° C. overnight. All the polyclonal antibodies for the protein of interest were purchased from Santa Cruz Biotechnology, Inc., Dallas, TX, USA. Then, blots were washed 3 times for 10 minutes with 1×TBS, 0.1% Tween® 20 and incubated for 1 h with secondary antibody (peroxidase-coupled anti rabbit in 1×TBS, 0.1% Tween®20). […] Band densitometric analysis was performed using Image Lab Software (Biorad, Milan, Italy).
The liver is a major organ responsible for most functions of cellular metabolism and a mediator between dietary and endogenous sources of energy for extrahepatic tissues. In this context, AMPK constitutes an intrahepatic energy sensor regulating physiological energy dynamics by limiting anabolism and stimulating catabolism, thus increasing ATP availability. Once activated, AMPK phosphorylates its downstream substrates to reduce ATP-consuming anabolic pathways, including cholesterol, fatty acid, and triacylglycerol synthesis, and increases ATP-generating catabolic pathways, including fatty acid oxidation and lipolysis. […]

Row | Compound | ACC phosphorylation (p-ACC)
1 | Cc1cc(OCC(=O)O)cc(C)c1Cc1ccc(N)c(C(C)C)c1 [IS25, 2-(4-(4-amino-3-isopropylbenzyl)-3,5-dimethylphenoxy)acetic acid] | significant ACC phosphorylation
2 | CC(=O)Nc1ccc(Cc2c(C)cc(OCC(=O)O)cc2C)cc1C(C)C [TG68, 2-(4-(4-acetamido-3-isopropylbenzyl)-3,5-dimethylphenoxy)acetic acid] | significant ACC phosphorylation
